A short description of the data set: Oxidation potential by cyclic voltammetry. It is filed as physicochemical. Conditions: test method of the specification (dimethylformamide, tetrapropylammonium perchlorate). The method, then: More specifically, a test sample is dissolved to a concentration of 1×10^−6 to 1×10^−4 mol/liter in a solvent such as dimethylformamide or acetonitrile containing a supporting electrolyte such as sodium perchlorate or tetrapropylammonium perchlorate and the oxidation potential is measured as a value to SCE (saturated calomel electrode) using a cyclic voltammetry. This value sometimes deviates on the order of tens of millivolt due to the effect of liquid junction potential, liquid resistance of sample solution, or the like, however, the reproducibility of potential can be guaranteed by adding a standard sample (for example, hydroquinone). In order to univocally specify the potential, in the present invention, the value (SCE standard) measured in a dimethylformamide (concentration of dye: 0.001·moldm^−3) containing 0.1 mol·dm^−3 of tetrapropylammonium perchlorate as the supporting electrolyte is used as the oxidation potential of the dye. In the case of a water-soluble dye, the dye is sometimes hardly dissolved directly in N,N-dimethylformamide. In such a case, the oxidation potential is measured after dissolving the dye by using water in a small amount as much as possible and then diluting it with N,N-dimethylformamide to have a water content of 2% or less.
For the compound `Cc1c(C#N)c(Nc2ccc(S(=O)(=O)[O-])cc2)nc(Nc2ccc(S(=O)(=O)[O-])cc2)c1N=Nc1sc(N=Nc2cc(C(=O)[O-])cc(C(=O)[O-])c2)cc1C#N.[Li+].[Li+].[Li+].[Li+]` [BK-4], the oxidation potential is listed as 1.32 V (vs SCE).
With `CC(C)CSc1nnc(/N=N/c2c(C(C)(C)C)nn(-c3nc(Nc4cc(C(=O)[O-])cc(C(=O)[O-])c4)nc(Nc4cc(C(=O)[O-])cc(C(=O)[O-])c4)n3)c2N)s1.[K+].[K+].[K+].[K+]` [Y-3] the figure was 1.22 V (vs SCE); with `CC(C)(C)c1nn(-c2nc(Nc3cc(C(=O)[O-])cc(C(=O)[O-])c3)nc(Nc3cc(C(=O)[O-])cc(C(=O)[O-])c3)n2)c(N)c1/N=N/c1ncns1.[Na+].[Na+].[Na+].[Na+]` [Y-2], 1.25 V (vs SCE).
`Cc1cc(C)c(S(=O)(=O)[O-])c(C)c1Nc1nc(N(c2nc3ccc(S(=O)(=O)[O-])cc3s2)c2c(C)cc(C)c(S(=O)(=O)O)c2C)ccc1/N=N/c1c(C#N)c(C(C)(C)C)nn1-c1nc2ccc(S(=O)(=O)[O-])cc2s1.[K+].[K+].[Na+]` [M-3]: the oxidation potential is 1.29 V (vs SCE).
